Data from patent publication US20160000080A1, “COMPOSITIONS CONTAINING ISOSORBIDE MONOESTER AND ALIPHATIC VICINAL DIOLS” (CLARIANT INTERNATIONAL LTD., priority 2011, published 2016).
Read-outs that look alike come from different tables or passages of the source.

Tests used:
[1] = test system: bacteria, fungi and yeasts; conditions: general statement, no test described, cited from earlier work
[2] = test system: bacteria, fungi and yeasts; experiment: Antimicrobial efficacy, overall statements; format: cell-based
Description: Below, the antimicrobial efficacy of a composition according to the invention consisting of 50% by weight of isorbide caprylate 1 and 50% by weight of ethylhexylglycerin against bacteria, fungi and yeasts is examined (hereinbelow, the composition is referred to as “composition A”). For the tests with bacteria, composition A was diluted with butyl polyglycol and then, at 50° C., added to liquid CASO agar (casein-peptone agar) buffered to pH 7 (+/−0.2) in various concentrations (hereinbelow referred to as compositions B1, B2, etc.). For the tests with fungi and yeasts, composition A was diluted with butyl polyglycol and then added to liquid Sabouraud 4% dextrose agar buffered to pH 5.6 (+/−0.2) in various concentrations (hereinbelow referred to as compositions PH1, PH2, etc.). […]
(§1) The minimum inhibitory concentrations for the pure substances isosorbide caprylate 1 and ethylhexylglycerin were determined analogously.
(§2) Analogously to the determination of the antimicrobial activity according to the above example B), the antimicrobial activity of a mixture comprising, firstly, 89.6% by weight of isosorbide dicaprylate and 9.4% by weight of isosorbide monocaprylate (remainder: 1% by weight) (hereinbelow referred to as “isosorbide dicaprylate”) and, secondly, pure isosorbide was determined in further test series.

Pseudomonas aeruginosa = experiment: Minimum inhibitory concentration (MIC) in agar; format: cell-based; conditions: Pseudomonas aeruginosa (B)
Description: (§3) Below, the antimicrobial efficacy of a composition according to the invention consisting of 50% by weight of isorbide caprylate 1 and 50% by weight of ethylhexylglycerin against bacteria, fungi and yeasts is examined (hereinbelow, the composition is referred to as “composition A”). For the tests with bacteria, composition A was diluted with butyl polyglycol and then, at 50° C., added to liquid CASO agar (casein-peptone agar) buffered to pH 7 (+/−0.2) in various concentrations (hereinbelow referred to as compositions B1, B2, etc.). For the tests with fungi and yeasts, composition A was diluted with butyl polyglycol and then added to liquid Sabouraud 4% dextrose agar buffered to pH 5.6 (+/−0.2) in various concentrations (hereinbelow referred to as compositions PH1, PH2, etc.). The compositions B1, B2, etc. and PH1, PH2 etc. were each poured into Petri dishes and each inoculated with identical amounts of bacteria, fungi and yeasts. The minimum inhibitory concentration (MIC) is the concentration at which inhibition of the growth of the bacteria, fungi and yeasts in the compositions B1, B2, etc. and PH1, PH2, etc. occurs.
as §1
(§4) The values determined for the minimum inhibitory concentrations “MIC mixture”, stated in Table 1 below, are based on the concentrations of composition A.
(§5) The values determined for the minimum inhibitory concentrations “QA” and “QB”, stated in Table 1 below, have already been corrected for the dilution effect of the butyl polyglycol.
(§6) From the minimum inhibitory concentrations determined, it is then possible to calculate whether a synergistic effect is present or not. Whether a synergistic effect is present is calculated according to F. C. Kull et al., Applied Microbiology 1961, 9, 538 using the formula below: […]
(§7) where • Qa is the minimum inhibitory concentration of isosorbide caprylate 1 in the mixture employed, • QA is the minimum inhibitory concentration of isosorbide caprylate 1, • Qb is the minimum inhibitory concentration of ethylhexylglycerin in the mixture employed and • QB is the minimum inhibitory concentration of ethylhexylglycerin.
(§8) The values for Qa and Qb are determined from the values for the mixtures (“MIC mixture”) by multiplying the minimum inhibitory concentrations determined for Qa with the factor 0.5 and for Qb with the factor 0.5, because of the proportions of the ingredients—50% by weight of isosorbide caprylate 1 and 50% by weight of ethylhexylglycerin—in composition A according to the invention examined.
(§9) If an SE value>1 is obtained, an antagonistic effect is present. If SE=1, the compounds are neutral with respect to one another, and if SE<1, a synergistic effect is present.
as §2

Escherichia coli = experiment: Minimum inhibitory concentration (MIC) in agar; format: cell-based; conditions: Escherichia coli (B)
Description: as §3, §1, §4, §5, §6, §7, §8, §9, §2

Penicillium funicolosium = experiment: Minimum inhibitory concentration (MIC) in agar; format: cell-based; conditions: Penicillium funicolosium (F)
Description: as §3, §1, §4, §5, §6, §7, §8, §9, §2

Klebsiella pneumoniae = experiment: Minimum inhibitory concentration (MIC) in agar; format: cell-based; conditions: Klebsiella pneumoniae (B)
Description: as §3, §1, §4, §5, §6, §7, §8, §9, §2

Staphylococcus aureus = experiment: Minimum inhibitory concentration (MIC) in agar; format: cell-based; conditions: Staphylococcus aureus (B)
Description: as §3, §1, §4, §5, §6, §7, §8, §9, §2

Candida albicans = experiment: Minimum inhibitory concentration (MIC) in agar; format: cell-based; conditions: Candida albicans (Y)
Description: as §3, §1, §4, §5, §6, §7, §8, §9, §2

Pseudomonas oleovorans = experiment: Minimum inhibitory concentration (MIC) in agar; format: cell-based; conditions: Pseudomonas oleovorans (B)
Description: as §3, §1, §4, §5, §6, §7, §8, §9, §2

Aspergillus terreus = experiment: Minimum inhibitory concentration (MIC) in agar; format: cell-based; conditions: Aspergillus terreus (F)
Description: as §3, §1, §4, §5, §6, §7, §8, §9, §2

Aspergillus brasiliensis = experiment: Minimum inhibitory concentration (MIC) in agar; format: cell-based; conditions: Aspergillus brasiliensis (F)
Description: as §3, §1, §4, §5, §6, §7, §8, §9, §2

Penicillium minioluteum = experiment: Minimum inhibitory concentration (MIC) in agar; format: cell-based; conditions: Penicillium minioluteum (F)
Description: as §3, §1, §4, §5, §6, §7, §8, §9, §2

Fusarium solani = experiment: Minimum inhibitory concentration (MIC) in agar; format: cell-based; conditions: Fusarium solani (F)
Description: as §3, §1, §4, §5, §6, §7, §8, §9, §2

Proteus vulgaris = experiment: Minimum inhibitory concentration (MIC) in agar; format: cell-based; conditions: Proteus vulgaris (B)
Description: as §3, §1, §4, §5, §6, §7, §8, §9, §2

Enterobacter aerogenes = experiment: Minimum inhibitory concentration (MIC) in agar; format: cell-based; conditions: Enterobacter aerogenes (B)
Description: as §3, §1, §4, §5, §6, §7, §8, §9, §2

Citrobacter freundii = experiment: Minimum inhibitory concentration (MIC) in agar; format: cell-based; conditions: Citrobacter freundii (B)
Description: as §3, §1, §4, §5, §6, §7, §8, §9, §2

[3] = CASO agar pH 7 (+/-0.2), read-out: minimum inhibitory concentration (MIC), meas.
[4] = Sabouraud 4% dextrose agar pH 5.6 (+/-0.2), read-out: minimum inhibitory concentration (MIC), meas.
[5] = MIC mixture x factor 0.5 (composition A)
[6] = Sabouraud 4% dextrose agar pH 5.6 (+/-0.2)

CCCCCCCC(=O)O [caprylic acid]
antimicrobial activity (in words) ([1]; at a pH of 6 or above): no antimicrobial activity | antimicrobial efficacy (in words) [1]: antimicrobially effective

O[C@@H]1CO[C@H]2[C@@H]1OC[C@@H]2O [isosorbide]
antimicrobial activity (in words) ([2]; summary of the results of Table 2): neither isosorbide nor isosorbide dicaprylate are antimicrobially active | MIC (Pseudomonas aeruginosa; [3]): 10000 µg/mL | MIC (Escherichia coli; [3]): 10000 µg/mL | MIC (Penicillium funicolosium; [4]): 10000 µg/mL | MIC (Klebsiella pneumoniae; [3]): 10000 µg/mL | MIC (Staphylococcus aureus; [3]): 10000 µg/mL | MIC (Candida albicans; [4]): 10000 µg/mL | MIC (Pseudomonas oleovorans; Ectopseudomonas oleovorans, CASO agar pH 7 (+/-0.2), read-out: minimum inhibitory concentration (MIC), meas.): 10000 µg/mL | MIC (Aspergillus terreus; [4]): 10000 µg/mL | MIC (Aspergillus brasiliensis; [4]): 10000 µg/mL | MIC (Penicillium minioluteum; Talaromyces minioluteus, Sabouraud 4% dextrose agar pH 5.6 (+/-0.2), read-out: minimum inhibitory concentration (MIC), meas.): 10000 µg/mL | MIC (Fusarium solani; [4]): 10000 µg/mL | MIC (Proteus vulgaris; [3]): 10000 µg/mL | MIC (Enterobacter aerogenes; Klebsiella aerogenes, CASO agar pH 7 (+/-0.2), read-out: minimum inhibitory concentration (MIC), meas.): 10000 µg/mL | MIC (Citrobacter freundii; [3]): 10000 µg/mL

CCCCC(CC)COCC(O)CO (stereo not shown) [ethylhexylglycerin]
minimum inhibitory concentration (MIC), meas. (Pseudomonas aeruginosa; CASO agar pH 7 (+/-0.2)): 5000 ppm | minimum inhibitory concentration of the component in the mixture employed (Qa / Qb), calc. (Pseudomonas aeruginosa; [5]): 2500 ppm | minimum inhibitory concentration (MIC), meas. (Escherichia coli; CASO agar pH 7 (+/-0.2)): 1000 ppm | minimum inhibitory concentration of the component in the mixture employed (Qa / Qb), calc. (Escherichia coli; [5]): 750 ppm | minimum inhibitory concentration of the component in the mixture employed (Qa / Qb), calc. (Penicillium funicolosium; [5]): 125 ppm | minimum inhibitory concentration (MIC), meas. (Penicillium funicolosium; [6]): 500 ppm | minimum inhibitory concentration (MIC), meas. (Klebsiella pneumoniae; CASO agar pH 7 (+/-0.2)): 2000 ppm | minimum inhibitory concentration of the component in the mixture employed (Qa / Qb), calc. (Klebsiella pneumoniae; [5]): 1000 ppm | minimum inhibitory concentration (MIC), meas. (Staphylococcus aureus; CASO agar pH 7 (+/-0.2)): 750 ppm | minimum inhibitory concentration of the component in the mixture employed (Qa / Qb), calc. (Staphylococcus aureus; [5]): 500 ppm | minimum inhibitory concentration of the component in the mixture employed (Qa / Qb), calc. (Candida albicans; [5]): 375 ppm | minimum inhibitory concentration (MIC), meas. (Candida albicans; [6]): 1000 ppm | minimum inhibitory concentration (MIC), meas. (Pseudomonas oleovorans; CASO agar pH 7 (+/-0.2)): 5000 ppm | minimum inhibitory concentration of the component in the mixture employed (Qa / Qb), calc. (Pseudomonas oleovorans; [5]): 5000 ppm | minimum inhibitory concentration of the component in the mixture employed (Qa / Qb), calc. (Aspergillus terreus; [5]): 250 ppm | minimum inhibitory concentration (MIC), meas. (Aspergillus terreus; [6]): 1000 ppm | minimum inhibitory concentration of the component in the mixture employed (Qa / Qb), calc. (Aspergillus brasiliensis; [5]): 375 ppm | minimum inhibitory concentration (MIC), meas. (Aspergillus brasiliensis; [6]): 1000 ppm | minimum inhibitory concentration of the component in the mixture employed (Qa / Qb), calc. (Penicillium minioluteum; [5]): 250 ppm | minimum inhibitory concentration (MIC), meas. (Penicillium minioluteum; [6]): 750 ppm | minimum inhibitory concentration of the component in the mixture employed (Qa / Qb), calc. (Fusarium solani; [5]): 125 ppm | minimum inhibitory concentration (MIC), meas. (Fusarium solani; [6]): 500 ppm | minimum inhibitory concentration (MIC), meas. (Proteus vulgaris; CASO agar pH 7 (+/-0.2)): 1500 ppm | minimum inhibitory concentration of the component in the mixture employed (Qa / Qb), calc. (Proteus vulgaris; [5]): 750 ppm | minimum inhibitory concentration (MIC), meas. (Enterobacter aerogenes; CASO agar pH 7 (+/-0.2)): 2000 ppm | minimum inhibitory concentration of the component in the mixture employed (Qa / Qb), calc. (Enterobacter aerogenes; [5]): 2500 ppm | minimum inhibitory concentration (MIC), meas. (Citrobacter freundii; CASO agar pH 7 (+/-0.2)): 1500 ppm | minimum inhibitory concentration of the component in the mixture employed (Qa / Qb), calc. (Citrobacter freundii; [5]): 750 ppm

isosorbide monocaprylate
antimicrobial activity (in words) ([2]; concluded from the MICs of isosorbide caprylate 1 and of its other constituents): significant antimicrobial activity
